# Columns and labels:
# Assay type in all cases: functional
# MDA-MB-435 = test: Cytotoxicity against Homo sapiens (human) MDA-MB-435 cells after 48 hr by SRB assay; conditions: MDA-MB-435, 48 h
# Hs-578T = test: Cytotoxicity against Homo sapiens (human) Hs578T cells after 48 hr by SRB assay
# MCF7 [1] = test: Cytotoxicity against Homo sapiens (human) MCF7 cells after 48 hr by SRB assay; conditions: MCF7, 48 h
# DU-145 = test: Cytotoxicity against Homo sapiens (human) DU145 cells after 48 hr by SRB assay; conditions: DU-145, 48 h
# UO-31 = test: Cytotoxicity against Homo sapiens (human) UO31 cells after 48 hr by SRB assay; conditions: UO-31, 48 h
# RXF 393 = test: Cytotoxicity against Homo sapiens (human) RXF393 cells after 48 hr by SRB assay; conditions: RXF 393, 48 h
# SN12C = test: Cytotoxicity against Homo sapiens (human) SN12C cells after 48 hr by SRB assay
# CAKI-1 = test: Cytotoxicity against Homo sapiens (human) Caki1 cells after 48 hr by SRB assay; conditions: CAKI-1, 48 h
# ACHN = test: Cytotoxicity against Homo sapiens (human) ACHN cells after 48 hr by SRB assay
# 786-0 = test: Cytotoxicity against Homo sapiens (human) 786-0 cells after 48 hr by SRB assay; conditions: 786-0, 48 h
# [2] = Cytotoxicity against Homo sapiens (human) NCI-ADR-RES cells after 48 hr by SRB assay
# SK-OV-3 = test: Cytotoxicity against Homo sapiens (human) SKOV3 cells after 48 hr by SRB assay; conditions: SK-OV-3, 48 h
# OVCAR-8 = test: Cytotoxicity against Homo sapiens (human) OVCAR8 cells after 48 hr by SRB assay; conditions: OVCAR-8, 48 h
# OVCAR-5 = test: Cytotoxicity against Homo sapiens (human) OVCAR5 cells after 48 hr by SRB assay; conditions: OVCAR-5, 48 h
# OVCAR-4 = test: Cytotoxicity against Homo sapiens (human) OVCAR4 cells after 48 hr by SRB assay; conditions: OVCAR-4, 48 h
# UACC-62 = test: Cytotoxicity against Homo sapiens (human) UACC62 cells after 48 hr by SRB assay; conditions: UACC-62, 48 h
# UACC-257 = test: Cytotoxicity against Homo sapiens (human) UACC257 cells after 48 hr by SRB assay; conditions: UACC-257, 48 h
# SK-MEL-2 = test: Cytotoxicity against Homo sapiens (human) SK-MEL-2 cells after 48 hr by SRB assay; conditions: SK-MEL-2, 48 h
# SK-MEL-28 = test: Cytotoxicity against Homo sapiens (human) SK-MEL-28 cells after 48 hr by SRB assay; conditions: SK-MEL-28, 48 h
# [3] = Cytotoxicity against Homo sapiens (human) breast cancer cells after 48 hr by SRB assay; conditions: Cancer cell lines
# [4] = Cytotoxicity against Homo sapiens (human) renal cancer cells after 48 hr by SRB assay; conditions: Cancer cell lines
# [5] = Cytotoxicity against Homo sapiens (human) ovarian cancer cells after 48 hr by SRB assay; conditions: Cancer cell lines
# [6] = Cytotoxicity against Homo sapiens (human) melanoma cells after 48 hr by SRB assay; conditions: Melanoma cell
# [7] = Cytotoxicity against Homo sapiens (human) CNS cancer cells after 48 hr by SRB assay; conditions: Cancer cell lines
# NCI-H460 [8] = test: Cytotoxicity against Homo sapiens (human) NCI-H460 cells assessed as cellular growth after 48 hr by Alamar blue assay; parameters: concentration or dose not given beside the values
# [9] = Cytotoxicity against Homo sapiens (human) leukemia cells after 48 hr by SRB assay; conditions: Leukemia cell
# SF-268 [10] = test: Cytotoxicity against Homo sapiens (human) SF268 cells assessed as cellular growth after 48 hr by Alamar blue assay; parameters: concentration or dose not given beside the values
# BT-549 = test: Cytotoxicity against Homo sapiens (human) BT549 cells after 48 hr by SRB assay; conditions: BT-549, 48 h
# T47D = test: Cytotoxicity against Homo sapiens (human) T47D cells after 48 hr by SRB assay
# SNB-19 = test: Cytotoxicity against Homo sapiens (human) SNB19 cells after 48 hr by SRB assay; conditions: SNB-19, 48 h
# SF-539 = test: Cytotoxicity against Homo sapiens (human) SF539 cells after 48 hr by SRB assay; conditions: SF-539, 48 h
# SF-295 = test: Cytotoxicity against Homo sapiens (human) SF295 cells after 48 hr by SRB assay; conditions: SF-295, 48 h
# SW-620 = test: Cytotoxicity against Homo sapiens (human) SW620 cells after 48 hr by SRB assay; conditions: SW-620, 48 h
# SF-268 [11] = test: Cytotoxicity against Homo sapiens (human) SF268 cells after 48 hr by SRB assay; conditions: SF-268, 48 h
# KM12 = test: Cytotoxicity against Homo sapiens (human) KM12 cells after 48 hr by SRB assay; conditions: KM12, 48 h
# HCT-15 = test: Cytotoxicity against Homo sapiens (human) HCT15 cells after 48 hr by SRB assay; conditions: HCT-15, 48 h
# HT-29 = test: Cytotoxicity against Homo sapiens (human) HT-29 cells after 48 hr by SRB assay; conditions: HT-29, 48 h
# NCI-H522 = test: Cytotoxicity against Homo sapiens (human) NCI-H522 cells after 48 hr by SRB assay; conditions: NCI-H522, 48 h
# COLO 205 = test: Cytotoxicity against Homo sapiens (human) COLO205 cells after 48 hr by SRB assay; conditions: COLO 205, 48 h
# [12] = Cytotoxicity against Homo sapiens (human) NCI-H322 cells after 48 hr by SRB assay; conditions: NCI-H322, 48 h
# NCI-H460 [13] = test: Cytotoxicity against Homo sapiens (human) NCI-H460 cells after 48 hr by SRB assay; conditions: NCI-H460, 48 h
# HOP-92 = test: Cytotoxicity against Homo sapiens (human) HOP92 cells after 48 hr by SRB assay; conditions: HOP-92, 48 h
# EKVX = test: Cytotoxicity against Homo sapiens (human) EKVX cells after 48 hr by SRB assay
# HOP-62 = test: Cytotoxicity against Homo sapiens (human) HOP62 cells after 48 hr by SRB assay; conditions: HOP-62, 48 h
# RPMI-8226 = test: Cytotoxicity against Homo sapiens (human) RPMI8226 cells after 48 hr by SRB assay; conditions: RPMI-8226, 48 h
# CCRF-CEM = test: Cytotoxicity against Homo sapiens (human) CCRF-CEM cells after 48 hr by SRB assay
# MCF7 [14] = test: Cytotoxicity against Homo sapiens (human) MCF7 cells assessed as cellular growth after 48 hr by Alamar blue assay; parameters: concentration or dose not given beside the values
structure (smiles),measurement,setting,value
NS(=O)(=O)c1ccc(N2N=C3c4ccccc4CC3C2c2cccs2)cc1 (stereo not drawn),GI50,MDA-MB-435,19.3 µM
same,GI50,Hs-578T,28.7 µM
same,GI50,MCF7 [1],> 100 µM
same,GI50,DU-145,14.5 µM
same,GI50,UO-31,39.4 µM
same,GI50,RXF 393,20.6 µM
same,GI50,SN12C,23.5 µM
same,GI50,CAKI-1,19.6 µM
same,GI50,ACHN,19.8 µM
same,GI50,786-0,17.6 µM
same,GI50,[2],17.1 µM
same,GI50,SK-OV-3,48 µM
same,GI50,OVCAR-8,15.3 µM
same,GI50,OVCAR-5,26.6 µM
same,GI50,OVCAR-4,> 100 µM
same,GI50,UACC-62,21.8 µM
same,GI50,UACC-257,29.7 µM
same,GI50,SK-MEL-2,> 100 µM
same,GI50,SK-MEL-28,75.6 µM
same,GI50,[3],38.3 µM
same,TGI,[3],52.1 µM
same,GI50,[4],21.9 µM
same,TGI,[4],43.7 µM
same,GI50,[5],40.8 µM
same,TGI,[5],79.6 µM
same,GI50,[6],41.5 µM
same,TGI,[6],51 µM
same,GI50,[7],36.4 µM
same,TGI,[7],70.3 µM
same,Activity,NCI-H460 [8],<=32%
same,GI50,[9],35.1 µM
same,TGI,[9],95.5 µM
same,Activity,SF-268 [10],<=32%
same,GI50,BT-549,19.3 µM
same,GI50,T47D,66.9 µM
same,GI50,SNB-19,34.4 µM
same,GI50,SF-539,17.4 µM
same,GI50,SF-295,16.2 µM
same,GI50,SW-620,35.4 µM
same,GI50,SF-268 [11],> 100 µM
same,GI50,KM12,15.7 µM
same,GI50,HCT-15,34.7 µM
same,GI50,HT-29,26.1 µM
same,GI50,NCI-H522,39.3 µM
same,GI50,COLO 205,58.9 µM
same,GI50,[12],5.79 µM
same,GI50,NCI-H460 [13],> 100 µM
same,GI50,HOP-92,25.8 µM
same,GI50,EKVX,15.9 µM
same,GI50,HOP-62,16.9 µM
same,GI50,RPMI-8226,32.3 µM
same,GI50,CCRF-CEM,31.8 µM
same,Activity,MCF7 [14],<=32%
